Columns and labels:
[1] = In vitro transdermal permeation, diffusion cell, pig epidermis; format: in vitro ADME, domestic pigs
Method: The viable epidermal layer was removed from the flanks of freshly sacrificed four month-old female domestic pigs. The flank area of each animal was carefully shaved and the upper 200 μm of skin (Meyer, W., et al., Curr. Prob. Dermatol., 7: 39-52, 1978; de Jalón, et al., J. Control. Rel., 75:191-197, 2001) was harvested using an electric dermatome (Robbins Instruments, Chatham, N.J., U.S.A.). Pigskin epidermal specimens were frozen at −18° C. between layers of PBS-soaked tissue paper enclosed in aluminum foil for up to two weeks prior to use in in vitro permeation studies.
A custom made finite dosing diffusion cell (AGB Scientific, Dublin, Ireland, FIG. 1) based upon and modified from the Keshary-Chien type diffusion cell was used for in vitro permeation studies.
Three to five diffusion cells were used in each permeation experiment and monitoring was performed over a 48 hour period. The cells were linked in series to a thermostatically controlled circulation bath set at 35° C. to mimic human skin surface temperature. Each cell was placed on a stir-plate set at a defined stirring rate of 1,000 rpm. The surface area for permeation provided by each cell was 3.14 cm^2.
Data collected from each permeation study included:
1) the average maximum flux obtained in 48 hours (Jmax),
2) the total absorption characterized as the total weight of peptide delivered transdermally into the receiver compartment over a 48 hour period,
3) the lag time to detectable flux which was equivalent to the latest sampling time at which no peptide was detectable by HPLC analysis of the receiver solution, and
4) an equivalent 48-hour steady state flux was determined by obtaining the slope of the best-fit line for a plot of cumulative flux per unit area versus time (described by McDaid, D. M. et al., Int. J. Pharm., 133:71-83, 1996).
Fresh hairless mouse skin samples or fresh or freshly thawed pig skin samples were mounted onto the diffusion cell with the SC topmost and in contact with the donor system. A rubber or plastic ring was placed on top of the skin sample to secure it in position. The combination of the diffusion cell top, the skin and the rubber ring was securely fastened together by means of a threaded cap. A recorded volume of receiver solution was added to the receiver compartment and maintained at 35° C. The receiver solution was 60/40 (v/v) PBS/propylene glycol (pH 7.1). The propylene glycol fraction was used to increase the solubility of the somatostatin-fatty acid salts. Previous work reported by Morgan et al. (J. Pharm. Sci., 87:1213-1218, 1998) has shown that a 50/50 water/propylene glycol receptor solution had no detrimental effect on the barrier integrity of both hairless mouse and porcine skin.
The receiver solution was allowed to equilibrate at 35° C. for 30 minutes. The experiment was initiated by the application of 1 ml of donor solution containing approximately 5 mg free base peptide in DMSO to the skin surface followed by sealing of the donor compartment with Parafilm®. A narrow-bore hypodermic needle was used to withdraw 1 ml samples from the receiver compartment via the sampling port; at each sampling time, an equal volume of drug-free receiver solution was immediately added back to the receiver compartment. Samples were analyzed by HPLC.
HPLC determination of peptide content in the receiver solution along with the known surface area of skin used (3.14 cm^2) allowed for calculation of transdermal flux (in units of μg/cm^2/hr) for each time point. Panels 1 and 2 of FIG. 2 show flux profiles obtained for the oleate salts of Compound A and Compound B in DMSO which far exceeded the flux profiles for the myristate, octanoate, decanoate, linoleate, nonanote, acetate and laurate salts of Compound A as well as the acetate salt of Compound B in DMSO. […]

[2] = Partition coefficients n-octanol/deionized water and n-octanol/PBS; format: physicochemical; details: 24 hours
Method: The partition coefficients for all somatostatin-fatty acid salts in either n-octanol/deionized water or n-octanol/PBS (pH 7.4) were determined. The partition coefficient is the concentration of Compound A or Compound B in the n-octanol phase divided by the concentration in the aqueous or PBS phase.
An accurately weighed sample of each salt was placed into 4 ml HPLC vials sealed with caps containing pierceable silicone septa and dissolved in 2 ml n-octanol. Two ml of either deionized water or PBS were added to each sample; the vials were vortexed vigorously and incubated at 37° C. with agitation for 24 hours in a shaker-incubator at 400 rpm.
Following incubation, two samples were withdrawn from each vial. Once the layers had fully partitioned, a syringe was used to draw a sample of the aqueous phase or the n-octanol phase. Samples from each phase were diluted appropriately with deionized or methanol prior to HPLC analysis.

[3] = pH of donor vehicles containing Compound B oleate; format: physicochemical
Method: The donor vehicles described herein were prepared at or close to neutral pH; this pH is close to the pH at which the fatty acid salts were synthesized and isolated. Because this work focused upon fatty acid peptide salts, a neutral pH was preferred to maintain molecular pairing. As described by Fini et al. (Int. J. Pharm., 187:163-173, 1999), adverse pH conditions can cause salt/ion pairs to dissociate, resulting in the loss of many properties beneficial to increasing transdermal flux, for example lipophilicity. […] Significant dissociation would have led to distortion of the flux profiles due to the formation of free oleic acid, in itself a potent penetration enhancer.

[4] = pig epidermis overlaid with microporous polypropylene membrane, EtOH/Water/Cineole + 5% (w/v) HPC, 5 mg/ml
[5] = pig epidermis, donor 55% EtOH 40% Water 5% Cineole, 5 mg/ml free base peptide
[6] = pig epidermis, donor 80% Prop. Glycol 15% Decanol 5% Cineole
[7] = pig epidermis, donor 80% Prop. Glycol 15% Dodecanol 5% Cineole
[8] = n-octanol/deionized water, 37° C.

Substance: [4-(2-hydroxyethyl)]-1-piperazinylacetyl-D-Phe-c(Cys-Tyr-D-Trp-Lys-Abu-Cys)-Thr-NH2 [Compound B di-oleate]
- Jmax [1, 4]: 4.200 μg/cm^2/hr
- Jss [1, 4]: 0.309 μg/cm^2/hr
- Lag Time [1, 4]: 1 h
- Total Absorption [1, 4]: 56.89 μg/48 hr
- Jmax [1, 5]: 9.224 μg/cm^2/hr
- Jss [1, 5]: 5.552 μg/cm^2/hr
- Lag Time [1, 5]: 1 h
- Total Absorption [1, 5]: 814.44 μg/48 hr
- Jmax [1, 6]: 6.085 μg/cm^2/hr
- Jss [1, 6]: 4.539 μg/cm^2/hr
- Lag Time [1, 6]: 3.5 h
- Total Absorption [1, 6]: 917.18 μg/48 hr
- Jmax [1, 7]: 3.983 μg/cm^2/hr
- Jss [1, 7]: 3.335 μg/cm^2/hr
- Lag Time [1, 7]: 5 h
- Total Absorption [1, 7]: 600.35 μg/48 hr
- Log KOPBS ([2]; n-octanol/PBS pH 7.4, 37° C.): −1.398
- O/PBS Coefficient (KOPBS) ([2]; n-octanol/PBS pH 7.4, 37° C.): 0.04
- Log KOW [2, 8]: 2.532
- O/W Coefficient (KOW) [2, 8]: 340.43
- pH ([3]; approx. 5 mg/ml in 55% EtOH 40% H2O 5% 1,8-Cineole): 6.89
- pH ([3]; approx. 5 mg/ml in 80% Prop. Glycol 15% Decanol 5% 1,8-Cineole): 7.08
- pH ([3]; approx. 5 mg/ml in 80% Prop. Glycol 15% Dodecanol 5% 1,8-Cineole): 7.56

— patent publication US20130085105A1, “Transdermal Administration Of Peptides” (The Provost, Fellows and Scholars of the College of Holy …, priority 2010, published 2013)
